# Reference: patent US20070128217A1 (priority 2003, published 2007)
# How the values were obtained:
# [1] = tested on: antibodies in sera from SARS patients (sera 1a, 1b, 2, 6, 37, 62, London, SARS-yellow, SARS-green); format: binding, human; design: Binding of serum 6 to linear peptides of protein X1 of SARS-CoV Urbani / Binding of serum 37 to linear peptides of protein X1 of SARS-CoV Urbani / Binding of serum 6 to looped/cyclic peptide (PEPSCAN-ELISA) / Binding of serum 37 to looped/cyclic peptide (PEPSCAN-ELISA) / Binding of serum 37 to looped/cyclic peptides of protein X1 of SARS-CoV Urbani / Binding of serum 6 to linear peptides of protein X2 / Binding of serum 37 to linear peptides of protein X2 / Binding of serum 37 to looped/cyclic peptides of protein X2 of SARS-CoV Urbani / Binding of serum 6 to linear peptides of protein M of SARS-CoV Urbani / Binding of serum 37 to linear peptides of protein M of SARS-CoV Urbani / Binding of serum 6 to looped/cyclic peptides of protein M of SARS-CoV Urbani / Binding of serum 37 to looped/cyclic peptides of protein M of SARS-CoV Urbani / Binding of serum 6 to linear peptides of protein X3 of SARS-CoV Urbani / Binding of serum 37 to linear peptides of protein X3 of SARS-CoV Urbani / Binding of serum 37 to looped/cyclic peptides of protein X3 of SARS-CoV Urbani / Binding of serum 6 to linear peptides of protein X4 of SARS-CoV Urbani / Binding of serum 37 to linear peptides of protein X4 of SARS-CoV Urbani / Binding of serum 37 to looped/cyclic peptides of protein X4 of SARS-CoV Urbani / Binding of serum 6 to linear peptides of protein X5 of SARS-CoV Urbani / Binding of serum 37 to linear peptides of protein X5 of SARS-CoV Urbani / Binding of serum 37 to looped/cyclic peptides of protein X5 of SARS-CoV Urbani / Binding of serum 6 to linear peptides of protein N of SARS-CoV Urbani / Binding of serum 37 to linear peptides of protein N of SARS-CoV Urbani / Binding of serum 6 to linear peptide (PEPSCAN-ELISA) / Binding of serum 1a to looped/cyclic peptides of protein N of SARS-CoV Urbani / Binding of serum 1b to looped/cyclic peptides of protein N of SARS-CoV Urbani / Binding of serum 2 to looped/cyclic peptides of protein N of SARS-CoV Urbani / Binding of serum 6 to looped/cyclic peptides of protein N of SARS-CoV Urbani / Binding of serum 37 to looped/cyclic peptides of protein N of SARS-CoV Urbani / Binding of serum 62 to looped/cyclic peptides of protein N of SARS-CoV Urbani / Binding of serum London to looped/cyclic peptides of protein N of SARS-CoV Urbani / Binding of serum SARS-green to looped/cyclic peptides of protein N of SARS-CoV Urbani: unit not given here
# [2] = tested on: control sera (pooled serum of ten healthy LUMC hospital workers; commercial negative donor pooled serum from the Dutch bloodbank); format: binding, human; design: Binding of Control serum LUMC to linear peptides / Binding of Control serum Blood-bank to linear peptides / Binding of Control serum LUMC to looped peptides / Binding of Control Serum Blood-Bank to Looped peptides / Binding of Control serum LUMC to linear peptides of the protein M of SARS-CoV Urbani / Binding of Control serum Blood-bank to linear peptides of the protein M of SARS-CoV Urbani / Binding of Control serum LUMC to looped peptides of the protein M of SARS-CoV Urbani / Binding of Control Serum Blood-Bank to Looped peptides of the protein M of SARS-CoV Urbani: unit not given here
# [3] = tested on: rabbit serum obtained by immunizing a rabbit with the SARS-CoV strain Frankfurt 1; format: binding; design: Binding of a rabbit serum to linear peptides / Binding of a rabbit serum to looped peptides / Rabbit serum linear peptides / Rabbit serum looped peptides / Binding of a rabbit serum to linear peptides of protein N of SARS-CoV Urbani (Rabbit serum linear peptides) / Binding of a rabbit serum to looped/cyclic peptides of protein N of SARS-CoV Urbani (Rabbit serum looped peptides): unit not given here
sequence,measurement,setting,value
TSRTLSYYKLGASQR,Binding of serum 1a to linear peptides of protein M of SARS-CoV Urbani,[1],0.7
same,Binding of serum 1a to looped/cyclic peptides of protein M of SARS-CoV Urbani,[1],0.7
same,Binding of serum 1b to linear peptides of protein M of SARS-CoV Urbani,[1],0.7
same,Binding of serum 1b to looped/cyclic peptides of protein M of SARS-CoV Urbani,[1],0.3
same,Binding of serum 2 to linear peptides of protein M of SARS-CoV Urbani,[1],0.7
same,Binding of serum 2 to looped/cyclic peptides of protein M of SARS-CoV Urbani,[1],0.7
same,Binding of serum 6 to linear peptides of protein M of SARS-CoV Urbani,[1],0.9
same,Binding of serum 6 to looped/cyclic peptides of protein M of SARS-CoV Urbani,[1],1.3
same,Binding of serum 37 to linear peptides of protein M of SARS-CoV Urbani,[1],0.7
same,Binding of serum 37 to looped/cyclic peptides of protein M of SARS-CoV Urbani,[1],0.6
same,Binding of serum 62 to linear peptides of protein M of SARS-CoV Urbani,[1],0.5
same,Binding of serum 62 to looped/cyclic peptides of protein M of SARS-CoV Urbani,[1],0.6
same,Binding of serum London to linear peptides of protein M of SARS-CoV Urbani,[1],0.5
same,Binding of serum London to looped/cyclic peptides of protein M of SARS-CoV Urbani,[1],0.7
same,Binding of serum SARS-green to linear peptides of protein M of SARS-CoV Urbani,[1],0.7
same,Binding of serum SARS-green to looped/cyclic peptides of protein M of SARS-CoV Urbani,[1],0.3
same,Binding of serum SARS-yellow to linear peptides of protein M of SARS-CoV Urbani,[1],0.5
same,Binding of serum SARS-yellow to looped/cyclic peptides of protein M of SARS-CoV Urbani,[1],0.9
same,Binding of Control Serum Blood-Bank to Looped peptides of the protein M of SARS-CoV Urbani,[2],0.6
same,Binding of Control serum Blood-bank to linear peptides of the protein M of SARS-CoV Urbani,[2],0.9
same,Binding of Control serum LUMC to linear peptides of the protein M of SARS-CoV Urbani,[2],1.0
same,Binding of Control serum LUMC to looped peptides of the protein M of SARS-CoV Urbani,[2],0.8
same,Rabbit serum linear peptides,[3],0.3
same,Rabbit serum looped peptides,[3],1.1
ARTRSMWSFNPETNI,Binding of serum 1a to linear peptides of protein M of SARS-CoV Urbani,[1],0.9
same,Binding of serum 1a to looped/cyclic peptides of protein M of SARS-CoV Urbani,[1],0.7
same,Binding of serum 1b to linear peptides of protein M of SARS-CoV Urbani,[1],0.8
same,Binding of serum 1b to looped/cyclic peptides of protein M of SARS-CoV Urbani,[1],0.1
same,Binding of serum 2 to linear peptides of protein M of SARS-CoV Urbani,[1],0.6
same,Binding of serum 2 to looped/cyclic peptides of protein M of SARS-CoV Urbani,[1],0.9
same,Binding of serum 6 to linear peptides of protein M of SARS-CoV Urbani,[1],0.7
same,Binding of serum 6 to looped/cyclic peptides of protein M of SARS-CoV Urbani,[1],0.6
same,Binding of serum 37 to linear peptides of protein M of SARS-CoV Urbani,[1],0.6
same,Binding of serum 37 to looped/cyclic peptides of protein M of SARS-CoV Urbani,[1],0.8
same,Binding of serum 62 to linear peptides of protein M of SARS-CoV Urbani,[1],0.5
same,Binding of serum 62 to looped/cyclic peptides of protein M of SARS-CoV Urbani,[1],0.8
same,Binding of serum London to linear peptides of protein M of SARS-CoV Urbani,[1],0.4
same,Binding of serum London to looped/cyclic peptides of protein M of SARS-CoV Urbani,[1],0.2
same,Binding of serum SARS-green to linear peptides of protein M of SARS-CoV Urbani,[1],0.7
same,Binding of serum SARS-green to looped/cyclic peptides of protein M of SARS-CoV Urbani,[1],0.1
same,Binding of serum SARS-yellow to linear peptides of protein M of SARS-CoV Urbani,[1],0.3
same,Binding of serum SARS-yellow to looped/cyclic peptides of protein M of SARS-CoV Urbani,[1],0.7
same,Binding of Control Serum Blood-Bank to Looped peptides of the protein M of SARS-CoV Urbani,[2],0.6
same,Binding of Control serum Blood-bank to linear peptides of the protein M of SARS-CoV Urbani,[2],0.7
same,Binding of Control serum LUMC to linear peptides of the protein M of SARS-CoV Urbani,[2],0.9
same,Binding of Control serum LUMC to looped peptides of the protein M of SARS-CoV Urbani,[2],0.7
same,Rabbit serum linear peptides,[3],0.2
same,Rabbit serum looped peptides,[3],0.3
KNYSELDDEEPMELD,Binding of Control Serum Blood-Bank to Looped peptides of the protein X3 of SARS-CoV Urbani,[2],0.6
same,Binding of Control serum Blood-bank to linear peptides of the protein X3 of SARS-CoV Urbani,[2],0.7
same,Binding of Control serum LUMC to linear peptides of the protein X3 of SARS-CoV Urbani,[2],0.6
same,Binding of Control serum LUMC to looped peptides of the protein X3 of SARS-CoV Urbani,[2],0.8
same,Rabbit serum linear peptides,[3],0.3
same,Rabbit serum looped peptides,[3],0.2
PTVYVYSRVKNLNSS,Binding of Control Serum Blood-Bank to Looped peptides,[2],1.1
same,Binding of Control serum Blood-bank to linear peptides,[2],0.8
same,Binding of Control serum LUMC to linear peptides,[2],0.5
same,Binding of Control serum LUMC to looped peptides,[2],0.8
same,Binding of a rabbit serum to linear peptides,[3],0.7
same,Binding of a rabbit serum to looped peptides,[3],0.7
IMRTFRIAIWNLDVI,Binding of Control Serum Blood-Bank to Looped peptides of the protein X3 of SARS-CoV Urbani,[2],0.9
same,Binding of Control serum Blood-bank to linear peptides of the protein X3 of SARS-CoV Urbani,[2],0.8
same,Binding of Control serum LUMC to linear peptides of the protein X3 of SARS-CoV Urbani,[2],0.8
same,Binding of Control serum LUMC to looped peptides of the protein X3 of SARS-CoV Urbani,[2],0.8
same,Rabbit serum linear peptides,[3],0.4
same,Rabbit serum looped peptides,[3],0.6
PLADNKFALTCTSTH,Binding of Control Serum Blood-Bank to Looped peptides,[2],0.6
same,Binding of Control serum Blood-bank to linear peptides,[2],0.8
same,Binding of Control serum LUMC to linear peptides,[2],0.5
same,Binding of Control serum LUMC to looped peptides,[2],0.7
same,Rabbit serum linear peptides,[3],1.1
same,Rabbit serum looped peptides,[3],0.0
GRCDIKDLPKEITVA,Binding of Control Serum Blood-Bank to Looped peptides of the protein M of SARS-CoV Urbani,[2],1.0
same,Binding of Control serum Blood-bank to linear peptides of the protein M of SARS-CoV Urbani,[2],0.5
same,Binding of Control serum LUMC to linear peptides of the protein M of SARS-CoV Urbani,[2],0.1
same,Binding of Control serum LUMC to looped peptides of the protein M of SARS-CoV Urbani,[2],0.9
same,Rabbit serum linear peptides,[3],0.0
same,Rabbit serum looped peptides,[3],0.1
PSGTYEGNSPFHPLA,Binding of Control Serum Blood-Bank to Looped peptides,[2],0.8
same,Binding of Control serum Blood-bank to linear peptides,[2],0.9
same,Binding of Control serum LUMC to linear peptides,[2],0.7
same,Binding of Control serum LUMC to looped peptides,[2],0.9
same,Rabbit serum linear peptides,[3],0.5
same,Rabbit serum looped peptides,[3],0.5
VSLVKPTVYVYSRVK,Binding of Control Serum Blood-Bank to Looped peptides,[2],0.6
same,Binding of Control serum Blood-bank to linear peptides,[2],0.9
same,Binding of Control serum LUMC to linear peptides,[2],0.6
same,Binding of Control serum LUMC to looped peptides,[2],0.9
same,Binding of a rabbit serum to linear peptides,[3],1.5
same,Binding of a rabbit serum to looped peptides,[3],2.0
LKTMSLYMAISPKFT,Binding of Control Serum Blood-Bank to Looped peptides,[2],0.6
same,Binding of Control serum Blood-bank to linear peptides,[2],0.7
same,Binding of Control serum LUMC to linear peptides,[2],0.6
same,Binding of Control serum LUMC to looped peptides,[2],0.6
same,Binding of a rabbit serum to linear peptides,[3],0.1
same,Binding of a rabbit serum to looped peptides,[3],0.4
TKKNYSELDDEEPME,Binding of Control Serum Blood-Bank to Looped peptides of the protein X3 of SARS-CoV Urbani,[2],0.4
same,Binding of Control serum Blood-bank to linear peptides of the protein X3 of SARS-CoV Urbani,[2],0.8
same,Binding of Control serum LUMC to linear peptides of the protein X3 of SARS-CoV Urbani,[2],0.4
same,Binding of Control serum LUMC to looped peptides of the protein X3 of SARS-CoV Urbani,[2],0.9
same,Rabbit serum linear peptides,[3],0.2
same,Rabbit serum looped peptides,[3],0.1
HQTAAFRDVLVVLNK,Binding of Control Serum Blood-Bank to Looped peptides,[2],0.8
same,Binding of Control serum Blood-bank to linear peptides,[2],0.5
same,Binding of Control serum LUMC to linear peptides,[2],0.9
same,Binding of Control serum LUMC to looped peptides,[2],0.6
same,Rabbit serum linear peptides,[3],0.4
same,Rabbit serum looped peptides,[3],0.8
VKPTVYVYSRVKNLN,Binding of Control Serum Blood-Bank to Looped peptides,[2],0.8
same,Binding of Control serum Blood-bank to linear peptides,[2],0.8
same,Binding of Control serum LUMC to linear peptides,[2],0.4
same,Binding of Control serum LUMC to looped peptides,[2],0.8
same,Binding of a rabbit serum to linear peptides,[3],0.5
same,Binding of a rabbit serum to looped peptides,[3],0.7
VANPAMDPIYDEPTT,Binding of Control Serum Blood-Bank to Looped peptides,[2],0.5
same,Binding of Control serum Blood-bank to linear peptides,[2],0.4
same,Binding of Control serum LUMC to linear peptides,[2],0.2
same,Binding of Control serum LUMC to looped peptides,[2],0.5
same,Binding of a rabbit serum to linear peptides,[3],0.1
same,Binding of a rabbit serum to looped peptides,[3],0.5
CQDPAGGALIARCWY,Binding of Control Serum Blood-Bank to Looped peptides,[2],0.9
same,Binding of Control serum Blood-bank to linear peptides,[2],0.7
same,Binding of Control serum LUMC to linear peptides,[2],0.3
same,Binding of Control serum LUMC to looped peptides,[2],0.7
same,Rabbit serum linear peptides,[3],0.5
same,Rabbit serum looped peptides,[3],0.6
TAQPVKIDNASPAST,Binding of Control Serum Blood-Bank to Looped peptides,[2],0.5
same,Binding of Control serum Blood-bank to linear peptides,[2],0.7
same,Binding of Control serum LUMC to linear peptides,[2],0.6
same,Binding of Control serum LUMC to looped peptides,[2],0.6
same,Binding of a rabbit serum to linear peptides,[3],0.1
same,Binding of a rabbit serum to looped peptides,[3],0.4
